Assay results as given in the METLIN SMRT retention time set (Domingo-Almenara et al. 2019).

assay: gradient 5% acetonitrile 3 min, to 50% in 2 min, to 85% in 15 min, held 3 min, 100 µL/min; conditions: column: Zorbax Extend-C18 2.1 x 50 mm; eluents: water / acetonitrile, 0.1% formic acid
In short: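 Retention time was recorded from adduct peaks, which were picked computationally and each inspected manually. Pure standards ran in mixtures of ~100 molecules on HPLC coupled to a quadrupole time-of-flight mass spectrometer, in positive and negative ionization mode, through a Zorbax Extend-C18 column (2.1 × 50 mm, 1.8 μm) at 100 μL/min. Eluents were water and acetonitrile, each with 0.1% formic acid.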

Point of comparison: Cc1cc(C)c(S(=O)(=O)NCc2c(-c3ccccc3)nc3sc(C)nn23)c(C)c1, RP-LC retention time 1020 s. Against it:
- CCOC(=O)C1=C(CN2CCN(C)CC2)NC(=O)NC1c1ccc(OC(C)C)cc1 (centres undefined) — lower, 636 s
- COc1ccc(-c2nc(-c3cccc(-c4ccn[nH]4)c3)no2)cc1 — lower, 1000 s
- CCOC(=O)c1[nH]c(C)c(CCC(=O)N2CCC(C(=O)NCCc3c(C)noc3C)CC2)c1C — lower, 695 s
- Cc1cccc(NC(=O)N2CCN(CC(=O)c3c(C)n(C)c4ccccc34)CC2)c1 — lower, 693 s
- Cc1nn(-c2ccc3nnc(C)n3n2)c(C)c1CCC(=O)NCCc1c[nH]c2ccccc12 — lower, 726 s
- O=C(c1ccn[nH]1)N1CC(F)(F)C[C@H]1c1nc(C2CC2)no1 — lower, 712 s
- COc1ccc(Cl)cc1NC(=O)N1CCC(n2cnc3cc(F)ccc3c2=O)CC1 — lower, 895 s
- CCNC(=O)C1=CCN(C(=O)c2cc(C)cc(C)c2)CC1 — lower, 720 s
- COc1ccc(NC(=O)Cn2nc3n(c2=O)CCCC3)cc1 — lower, 634 s
- COc1ccc(NC(C)=O)cc1NC(=O)C1CC(=O)N(c2n[nH]c3ccccc23)C1 (centres undefined) — lower, 626 s
- O=C(COc1ccccc1)Nc1ccc(-c2nc(-c3ccc(Cl)cc3)no2)cc1 — higher, 1280 s
- CC1Oc2ccc(-c3csc(NC(=O)c4ccccc4)n3)cc2N(C)C1=O (centres undefined) — lower, 970 s
- O=c1ccc(S(=O)(=O)N2CCOCC2)cn1Cc1cccc(F)c1 — lower, 755 s
- CC1CN(C2CCCCC2)c2nc3c(c(=O)n(CCN4CCOCC4)c(=O)n3C)n2C1 (centres undefined) — lower, 662 s
- COc1ccc(NC(=O)C2CN(S(=O)(=O)c3cccnc3)CC23CCCCC3)cc1 (centres undefined) — lower, 890 s
- COc1ccc(NC(=O)N2CCc3c(C(=O)NC4CCN(C)CC4)cccc32)cc1 — lower, 603 s
- Cn1nc(CN2CCCC2)c2c1CCN(S(=O)(=O)c1ccc(C(F)(F)F)cc1)C2 — lower, 679 s
- COc1ccc(N2CCN(C(=O)C3CC(=O)N(c4ccc(C)c(C)c4)C3)CC2)nn1 (centres undefined) — lower, 594 s
- COc1ccc(Br)c(C(=O)Nc2nnc(Cc3ccc(F)cc3)o2)c1 — lower, 774 s
- CN(Cc1ccccc1)C(=O)CN1C(=O)C2CCCCN2c2ccc(S(=O)(=O)N3CCCC3)cc21 (centres undefined) — lower, 987 s
- Fc1ccccc1N1CCN(Cc2nc(-c3ccc(N4CCSCC4)nc3)no2)CC1 — higher, 1030 s
- CN(C)c1ccc(C(=O)Nc2cnc(N3CCOCC3)nc2)cc1 — lower, 729 s
- Cc1cc2c(c(=O)n(-c3ccc(F)cc3)c(=O)n2CC(=O)Nc2ccc(C(C)C)cc2)n1C — lower, 921 s
- Cc1noc([C@@H]2CC(F)(F)CN2C(=O)c2ccoc2)n1 — lower, 703 s
- COC(=O)c1cnn2c(C)c(Cc3ccc(C)cc3)c(C)nc12 — lower, 885 s
- NC(=O)c1cn(Cc2c(F)cccc2F)nn1 — lower, 684 s
- Cc1nc(CCNC(=O)C2CCC2)no1 — lower, 608 s
- c1cncc(-c2nc(-c3ccc(-n4ccnc4)nc3)no2)c1 — lower, 597 s
- COc1cc2c(cc1OC)CN(C(=O)C1CCCN1S(=O)(=O)c1ccc(F)cc1)CC2 (centres undefined) — lower, 775 s
- Cc1oc(-c2[nH]ncc2C(=O)N(C)C)cc1S(=O)(=O)Nc1cccc(Cl)c1 — lower, 703 s
- Cc1cccc(NC(=O)Cn2c(N3CCOCC3)nc(C)cc2=O)c1 — lower, 672 s
- COCCn1c(SCc2nc(-c3ccc4c(c3)OCO4)no2)nc2cc3c(cc2c1=O)OCO3 — higher, 1060 s
- CCCCN(CC)Cc1ccc(CNC(=O)C2CCCN(c3nnc(N4CCCC4=O)s3)C2)o1 (centres undefined) — lower, 611 s
- CN(C)c1ccc(N2CCC(C(=O)NCCc3c[nH]c4ccccc34)CC2)nn1 — lower, 621 s
- CCc1noc2nc(CCC(=O)NCCCN3CCN(CC)CC3)nc(N3CCCCC3)c12 — lower, 595 s
- O=C(CCc1nc2ccccc2s1)N1CCC(c2noc(-c3ccccn3)n2)C1 (centres undefined) — lower, 755 s
- CC1=C(C(=O)NC2CCN(Cc3ccccc3)CC2)C2(CCCCC2)OC1=O — lower, 633 s
- COCCNC(=O)c1nc(-c2ccnc(N3CCCCCC3)c2)no1 — lower, 602 s
- COc1ccc(-c2nc3ncccn3c2NCc2ccc(Cl)cc2)cc1OC — lower, 717 s
- Cc1ccc(C(CNC(=O)c2cc(-c3ccc4c(c3)CCCC4)on2)N2CCN(C)CC2)o1 (centres undefined) — lower, 838 s
- CCN(C(=O)Cn1c(CN(C)C(=O)c2ccco2)nc2ccccc21)c1ccccc1 — lower, 704 s
- COc1cccc(S(=O)(=O)N2CCC3(CC2)N(C)C(=O)CS3=O)c1 (centres undefined) — lower, 653 s
- CCn1c(CCNC(=O)c2ccc(C)c(F)c2)nc2cccnc21 — lower, 676 s
- Cc1ccc(N2C=C(C(=O)N3CCC(C)CC3)S(=O)(=O)c3ccccc32)cc1F — lower, 974 s
- Cc1ccccc1CC(=O)N1CCN(c2cc(C)n3cnnc3n2)CC1 — lower, 608 s
- CCN1C(=O)c2c(C(=O)NCCc3cccc(C)c3)ncn2CC1(C)C(=O)NC1CCCC1 (centres undefined) — lower, 819 s
- COc1cccc(NC(=O)Cn2nc3c(Oc4ccccc4Cl)nccn3c2=O)c1 — lower, 865 s
- COC(=O)C1=CN(c2ccc(Cl)cc2)c2ccccc2S1(=O)=O — lower, 864 s
- COc1cccc(CN2CC(=O)N(Cc3ccc(F)cc3)c3ccccc3S2(=O)=O)c1 — higher, 1100 s
- COc1ccc(Cl)cc1NC(=O)CN1CCN(c2ccccc2F)CC1 — lower, 709 s
- Cc1cc(=O)n(CC(=O)NCc2ccccc2Cl)c(N)n1 — lower, 603 s
- COCCN1CC(CO)C2(CCN(Cc3ccc(Cl)c(F)c3)CC2)C1 (centres undefined) — lower, 555 s
- COc1ccc(C(C)NC(=O)c2sc3ncccc3c2-n2cccc2)cc1OC (centres undefined) — lower, 929 s
- CCC(CC)C(=O)N1CCC2(CC1)NCc1ccccc1-n1ccnc12 — lower, 580 s
- CN(C)C(=O)c1cc2c(s1)CCC(C(=O)N1CCN(C3CCCC3)CC1)C2 (centres undefined) — lower, 573 s
- Cc1nnc2ccc(-c3noc(Cc4ccccc4Br)n3)cn12 — lower, 838 s
- O=C1CN(c2ccccc2NC(=O)c2cc(-c3ccccc3)on2)CCN1 — lower, 798 s
- Cc1cc(C(=O)NCC23CCCC=C2NC(=O)CC3)nn1C (centres undefined) — lower, 641 s
- CCOC(=O)C1CCCN(CC(O)COc2ccccc2C(C)=O)C1 (centres undefined) — lower, 556 s
- COc1ccc2c(c1)CCC1C2CC[C@@]2(C)C1CC[C@@H]2NCCCCCCN1C(=O)CCC1=O (some centres undefined) — lower, 864 s
- O=C(C1CCN(c2cc(N3CCCCC3)ncn2)CC1)N1CCCCC1 — lower, 652 s
- O=C(Cn1ccn2nc(-c3ccccc3)c(CO)c2c1=O)Nc1ccc(F)cc1F — lower, 781 s
- C=CCn1c(=O)c2ccccc2n(Cc2nc(-c3ccc(F)c(Cl)c3)no2)c1=O — higher, 1140 s
- Cc1cc(=O)n(CC(=O)Nc2cc(C)on2)c(N2CCOCC2)n1 — lower, 592 s
- CCC(C)C(NC(=O)Cc1ccccc1Cl)C(=O)Nc1nc2ccccc2[nH]1 (centres undefined) — lower, 776 s
- CCOC(=O)c1[nH]c(C)c(CN(Cc2ccco2)C(=O)Cc2ccccc2)c1C — lower, 977 s
- COC(=O)c1ccc(NC(=O)Cn2c(C)nc3c(sc4nc(-c5ccccc5)ccc43)c2=O)cc1 — the same, 1020 s
- O=C(O)C1CN(C(=O)c2ccc3c(c2)OCO3)C1 — lower, 579 s
- CC1CCN(C(=O)c2cc(S(=O)(=O)N(C)CC(=O)N3CCN(c4ccccc4)CC3)c[nH]2)CC1 — lower, 862 s
- CNC(=O)c1nn(-c2ccc(OC)c(OC)c2)c(OC)cc1=O — lower, 590 s
- CC1Cc2ccccc2N1C(=O)c1ccc(=O)n(CCC(=O)NC2CCCCCC2)n1 (centres undefined) — lower, 861 s
- Cn1nc(-c2nc(-c3cccc(F)c3)no2)c2c1CCN(C(=O)NC1CCCC1)C2 — lower, 957 s
- O=C(CCC1CCCN(S(=O)(=O)c2ccccc2F)C1)NCCN1CCOCC1 (centres undefined) — lower, 642 s
- COc1ccc(Nc2nc(C(=O)Nc3ccc4c(c3)OCCO4)cs2)c(OC)c1 — lower, 865 s
- Cc1ccc(Cl)cc1N1CCN(C(=O)CCN2C(=O)C3C4C=CC(C4)C3C2=O)CC1 (centres undefined) — lower, 989 s
- O=C(Nc1ccc(N2CCOCC2)cc1)C1CN(S(=O)(=O)C2CC2)CC12CCCCC2 (centres undefined) — lower, 812 s
- CCn1ccc2sc(C)c(C(=O)NCc3ccccc3Br)c2c1=O — lower, 926 s
- CC(NC(=O)C1CCc2nc(N3CCOCC3)ncc2C1)c1ccco1 (centres undefined) — lower, 630 s
- CCOC(=O)c1c(S(=O)(=O)N2CCC(C(=O)Nc3cc(C)ccn3)CC2)c(C)n(C)c1C — lower, 644 s
- CC(=O)Nc1cccc(-c2nc(-c3ccc4c(c3)oc(=O)n4C(C)C)no2)c1 — lower, 936 s
- COCc1nc2ccccc2n1CC(=O)Nc1ccccc1 — lower, 780 s
- CCOC(=O)c1[nH]c(C)c(CCC(=O)N2CCC(C(=O)NCc3ccc(CC)cc3)CC2)c1C — lower, 867 s
- COCCN(Cc1ccc(C)cc1)Cc1cc(=O)n2ccc(C)cc2n1 — lower, 656 s
- CS(=O)(=O)c1ccc(SCC(=O)N2CCOCC2)c([N+](=O)[O-])c1 — lower, 636 s
- COCCn1nnnc1C1CC2(CCOCC2)C(=O)N1Cc1cc(F)cc(F)c1 (centres undefined) — lower, 740 s
- COc1ccccc1CN1C[C@@H]2C(=O)N(CCCN3CCCC3=O)C(=O)[C@@H]2C1 — lower, 586 s
- COC(=O)N1CCc2ccc(F)cc2C1C(=O)Nc1ncc(C)s1 (centres undefined) — lower, 788 s
- O=C(Nc1ccc2c(c1)OCCO2)c1noc2c1CCCC2 — lower, 870 s
